Counter-ions that a name gives are not always drawn. Like-named read-outs stand apart in the source and are kept apart here.
Legend:
[1] = molecular target: His-GST-TVMV-hRIPK1 (1-324) (Homo sapiens (Human), UniProt Q13546); experiment: RIPK1 HTRF Binding Assay; settings: read-out: RIPK1 HTRF (IC50); FRET probe displacement, 1 h at rt
Protocol: A solution was prepared containing 0.2 nM Anti GST-Tb (Cisbio, 61GSTTLB), 90.6 nM probe and 1 nM His-GST-TVMV-hRIPK1 (1-324) in FRET Buffer (20 mM HEPES, 10 mM MgCl2, 0.015% Brij-35, 4 mM DTT, 0.05 mg/mL BSA). Using Formulatrix Tempest, the detection antibody/enzyme/probe solution (2 mL) was dispensed into wells of a 1536 plate (Black Low Binding Polystyrene 1536 Plate (Corning, 3724)) containing 10 nL of compounds of interest at appropriate concentration in DMSO. The plate was incubated at rt for 1 h. FRET was measured using the EnVision plate reader (Excitation: 340 nm, Emission: 520 nm/495 nM). Total signal (0% inhibition) was calculated from wells containing 10 nL DMSO only.

[2] = tested on: MLKL phosphorylation in HT29-L23 human colorectal adenocarcinoma cells; experiment: MLKL Phosphorylation High-Content Assay; assay type: cell-based; settings: 6 h, necroptosis induced with TNFα, SMAC mimetic and Z-VAD, read-out: pMLKL (IC50)
Method in brief: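 HT29-L23 cells were induced to necroptosis with TNFα (35 ng/mL), SMAC mimetic (700 nM) and Z-VAD (140 nM) for 6 h at 37 °C. Phospho-MLKL (S358) immunofluorescence was imaged and quantified per cell; maximal inhibition set by Nec-1s (6.25 μM), and IC50/Ymax from 4-parameter logistic fit.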

Chain of His-GST-TVMV-hRIPK1 (1-324) (Q13546 1-324): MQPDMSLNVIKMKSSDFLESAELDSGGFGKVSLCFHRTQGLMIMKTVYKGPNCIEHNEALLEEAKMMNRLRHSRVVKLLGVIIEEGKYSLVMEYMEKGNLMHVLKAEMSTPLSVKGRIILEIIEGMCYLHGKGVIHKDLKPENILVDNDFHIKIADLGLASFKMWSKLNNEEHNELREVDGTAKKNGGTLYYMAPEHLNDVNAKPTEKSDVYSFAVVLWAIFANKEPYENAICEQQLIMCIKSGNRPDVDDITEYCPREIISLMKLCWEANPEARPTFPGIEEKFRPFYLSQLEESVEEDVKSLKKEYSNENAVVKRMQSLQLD

Row | Compound | IC50 [1] [nM] | IC50 ([2]; Homo sapiens) [nM] | IC50 [2] [nM]
1 | [2H]C([2H])([2H])NC(=O)c1n[nH]c2cc(-c3cnc(OC)c(C(=O)NCC(C)(C)C(=O)OC(C)(C)C)c3)ccc12 [Example 149, tert-butyl 3-[(2-methoxy-5-{3-[(deutero)methylcarbamoyl]-1H-indazol-6-yl}pyridin-3-yl)-formamido]-2,2-dimethyl-propanoate] | 33 | 74 | 
2 | COc1ncc(-c2ccc3c(C(=O)NCC4CC4)n[nH]c3c2)cc1C(=O)NCc1ccccc1OC(F)(F)F [Example 172, N-(cyclopropylmethyl)-6-[6-methoxy-5-({[2-(trifluoro-methoxy)phenyl]methyl}-carbamoyl)pyridin-3-yl]-1H-indazole-3-carboxamide] | 14 | 28 | 
3 | CNC(=O)c1n[nH]c2cc(-c3cnc(OC)c(C(=O)NCC[C@H](O)c4ccc(Cl)cc4)c3)cc(F)c12 [Example 145, 6-(5-{[(3S)-3-(4-chloro-phenyl)-3-hydroxypropyl]-carbamoyl}-6-methoxy-pyridin-3-yl)-4-fluoro-N-methyl-1H-indazole-3-carboxamide] | 9.6 | 200 | 
4 | CCCCNC(=O)c1n[nH]c2cc(-c3cnc(OC)c(C(=O)NCc4ccccc4OC(F)(F)F)c3)ccc12 [Example 175, N-butyl-6-[6-methoxy-5-({[2-(trifluoromethoxy)phenyl]-methyl}carbamoyl)pyridin-3-yl]-1H-indazole-3-carboxamide] | 9.9 | 29 | 
5 | CCNC(=O)c1n[nH]c2cc(-c3cnc(OC)c(C(=O)N[C@H](C)c4cc(OC(F)(F)F)ccc4F)c3)ccc12 [Example 233, N-[(1,1,2,2,2-deutero)ethyl]-6-(5-{[(1R)-1-[2-fluoro-5-(trifluorometh-oxy)phenyl](2,2,2-deutero)ethyl]-carbamoyl}-6-(deutero)methoxy-pyridin-3-yl)-1H-indazole-3-carbox-amide] | 54 |  | 77
6 | CNC(=O)c1n[nH]c2cc(-c3cnc(OC)c(C(=O)NCC4CCCN4C(=O)C(C)(C)C(F)(F)F)c3)ccc12 (stereo not shown) [Example 96, 6-[6-methoxy-5-({[1-(3,3,3-trifIuoro-2,2-dimethylpropan-oyl)pyrrolidin-2-yl]methyl}-carbamoyl)pyridin-3-yl]-N-methyl-1H-indazole-3-carboxamide] | 34 |  | 4.6
7 | CNC(=O)c1n[nH]c2cc(-c3cnc(OC)c(C(=O)NCC(C)(C)C(=O)NCc4ccc(F)cc4)c3)ccc12 [Example 91, 6-{5-[(2-{[(4-fluorophenyl)-methyl]carbamoyl}-2,2-dimethylethyl)carbamoyl]-6-methoxypyridin-3-yl}-N-methyl-1H-indazole-3-carboxamide] | 1.8 | 16 | 
8 | CNC(=O)c1n[nH]c2cc(-c3cc(C(=O)NCC4CCCC4(C)C)c(OC)nc3C)ccc12 (stereo not shown) [Example 159, 6-(5-{[(2,2-dimethylcyclo-pentyl)methyl]carbamoyl}-6-methoxy-2-methyl-pyridin-3-yl)-N-methyl-1H-indazole-3-carboxamide] | 34 | 110 | 
9 | [2H]C([2H])([2H])NC(=O)c1n[nH]c2cc(-c3cnc(OC)c(C(=O)NCC(C)(C)C(=O)OC4CCOCC4)c3)ccc12 [Example 148, oxan-4-yl 3-[(2-methoxy-5-{3-[(deutero)methylcarbamoyl]-1H-indazol-6-yl}pyridin-3-yl)formamido]-2,2-dimethyl-propanoate] | 54 | 96 | 
10 | N-[(1,1,2,2,2-deutero)ethyl]-6-(5- {[(1R)-1-[2-fluoro-5-(trifluoro- methoxy)phenyl]ethyl]carbamoyl}- 6-(deutero)methoxypyridin-3-yl)- 1H-indazole-3-carboxamide [Example 225] | 43 |  | 91
11 | COc1ncc(-c2ccc3c(C(=O)NC4CCC(O)CC4)n[nH]c3c2)cc1C(=O)NCc1ccccc1OC(F)(F)F (stereo not shown) [Example 189, 6-[6-methoxy-5-({[2-(trifluoro-methoxy)phenyl]methyl}-carbamoyl)pyridin-3-yl]-N-[(1r,4r)-4-hydroxycyclohexyl]-1H-indazole-3-carboxamide] | 9.6 | 30 | 
12 | CNC(=O)c1n[nH]c2cc(-c3cnc(OC)c(C(=O)N[C@@H](C)CC(=O)OC(C)(C)C)c3)cc(F)c12 [Example 146, tert-butyl (3S)-3-({5-[4-fluoro-3-(methylcarbamoyl)-1H-indazol-6-yl]-2-methox-pyridin-3-yl}formamido)-butanoate] | 69 | 400 | 
13 | CNC(=O)c1n[nH]c2cc(-c3cnc(OC)c(C(=O)NC4CCCC(C(=O)N(C)C)C4)c3)ccc12 (stereo not shown) [Example 120, 6-(5-{[3-(dimethylcarbam-oyl)cyclohexyl]carbamoyl}-6-methoxypyridin-3-yl)-N-methyl-1H-indazole-3-carbox-amide] | 11 |  | 100
14 | [2H]C([2H])([2H])Oc1ncc(-c2ccc3c(C(=O)NC)n[nH]c3c2)cc1C(=O)N[C@@H](C)c1cccc(C(F)(F)F)c1 [Example 35, 6-[6-(deutero)methoxy-5-{[(1S)-1-[3-(trifluoromethyl)phenyl]-ethyl]carbamoyl}pyridin-3-yl]-N-methyl-1H-indazole-3-carboxamide] | 10 | 44 | 
15 | [2H]C([2H])([2H])NC(=O)c1n[nH]c2cc(-c3cnc(OC([2H])([2H])[2H])c(C(=O)N[C@H](C)c4cccc(C(F)(F)F)c4)c3)ccc12 [Example 3, (R)-6-(6-(methoxy-d3)-5-((1-(3-(trifluoromethyl)phenyl)ethyl)carbamoyl)pyridin-3-yl)-N-(methyl-d3)-1H-indazole-3-carboxamide] | 46 | 41 | 
16 | [2H]C([2H])([2H])Oc1ncc(-c2ccc3c(C(=O)NC)n[nH]c3c2)cc1C(=O)NC([2H])([2H])c1ccccc1OC(F)(F)F [Example 16, 6-(6-methoxy D3-5-((2-(trifluoromethoxy)benzyl D2)carbamoyl)pyridin-3-yl)-N-methyl-1H-indazole-3-carboxamide] | 2.2 | 8.6 | 
17 | CNC(=O)c1n[nH]c2cc(-c3cnc(OC)c(C(=O)NCc4cccc(OCC5CCC5)c4)c3)ccc12 [Example 115, 6-[5-({[3-(cyclobutylmeth-oxy)phenyl]methyl}carbam-oyl)-6-methoxypyridin-3-yl]-N-methyl-1H-indazole-3-carboxamide] | 0.04 |  | 100
18 | [2H]C([2H])([2H])Oc1ncc(-c2ccc3c(C(=O)NC4CC4)n[nH]c3c2)cc1C(=O)NC1CCCC(C(=O)N2CCC(F)(F)C2)C1 (stereo not shown) [Example 203, N-cyclopropyl-6-(5-{[3-(3,3-difluoropyrrolidine-1-carbonyl)-cyclohexyl]carbamoyl}-6-(deutero)methoxypyridin-3-yl)-1H-indazole-3-carboxamide, TFA] | 12 | 95 | 
19 | COc1ncc(-c2ccc3c(C(=O)NC4CCC(N(C)C)CC4)n[nH]c3c2)cc1C(=O)NCc1ccccc1OC(F)(F)F (stereo not shown) [Example 185, N-[4-(dimethylamino)cyclo-hexyl]-6-[6-methoxy-5-({[2-(trifluoromethoxy)phenyl]-methyl}carbamoyl)pyridin-3-yl]-1H-indazole-3-carboxamide] | 13 | 110 | 
20 | CNC(=O)c1n[nH]c2cc(-c3cnc(C)c(C(=O)N[C@H]4CC[C@@H](c5ccccc5)C4)c3)ccc12 [Example 154, N-methyl-6-(6-methyl-5-{[(1S,3R)-3-phenylcyclopentyl]carbamoyl}-pyridin-3-yl)-1H-indazole-3-carbox-amide] | 2.9 |  | 58
21 | CNC(=O)c1n[nH]c2cc(-c3cnc(OC)c(C(=O)NC45CC6CC(C4)CC(c4ccccc4)(C6)C5)c3)ccc12 [Example 95, 6-{6-methoxy-5-[(3-phenyl-adamantan-1-yl)carbamoyl]-pyridin-3-yl}-N-methyl-1H-indazole-3-carboxamide] | 17 | 9.3 | 
22 | CNC(=O)c1n[nH]c2cc(-c3cc(C(=O)NCc4cccc(OC(F)(F)F)c4)c(OC)nc3C)ccc12 [Example 160, 6-[6-methoxy-2-methyl-5-({[3-(trifluoromethoxy)-phenyl]methyl}carbamoyl)-pyridin-3-yl]-N-methyl-1H-indazole-3-carboxamide] | 27 | 120 | 
23 | CCN(CC)C(=O)C1CCCC(NC(=O)c2cc(-c3ccc4c(C(=O)NC)n[nH]c4c3)cnc2OC)C1 (stereo not shown) [Example 121, 6-(5-{[3-(diethylcarbamoyl)-cyclohexyl]carbamoyl}-6-methoxypyridin-3-yl)-N-methyl-1H-indazole-3-carbox-amide] | 6.1 |  | 7.5
24 | CNC(=O)c1n[nH]c2cc(-c3cnc(OC)c(C(=O)NCc4cc(F)cc(F)c4OCC4CC4)c3)ccc12 [Example 128, 6-[5-({[2-(cyclopropylmeth-oxy)-3,5-difluorophenyl]-methyl}carbamoyl)-6-meth-oxypyridin-3-yl]-N-methyl-1H-indazole-3-carboxamide] | 2.3 | 3.1 | 
25 | CNC(=O)c1n[nH]c2cc(-c3cnc(OC)c(C(=O)NCc4cc(F)cc(F)c4OC(C)C)c3)ccc12 [Example 126, 6-[5-({[3,5-difluoro-2-(propan-2-yloxy)phenyl]methyl}-carbamoyl)-6-methoxypyridin-3-yl]-N-methyl-1H-indazole-3-carboxamide] | 4.2 | 6.9 | 
26 | CCN(CC)C1CCC(NC(=O)c2n[nH]c3cc(-c4cnc(OC)c(C(=O)NCc5ccccc5OC(F)(F)F)c4)ccc23)CC1 (stereo not shown) [Example 184, N-[4-(diethylamino)cyclohexyl]-6-[6-methoxy-5-({[2-(trifluoro-methoxy)phenyl]methyl}carbam-oyl)pyridin-3-yl]-1H-indazole-3-carboxamide, TFA] | 7 | 88 | 

Source: patent US12172975B2, “1H-indazole carboxamides as receptor-interacting protein kinase 1 inhibitors (RIPK1)” (BRISTOL-MYERS SQUIBB COMPANY, priority 2018, dated 2024)
